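Abbreviation: GI50, concentration required for 50% inhibition of growth. TGI denotes the concentration required for complete inhibition of growth.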
Legend:
Assay in all cases: growth of human tumour cells (NCI), 384-well format; in the data active means GI50 below about 0.43 µM; inactive means the rest
786-0 renal = tested on: 786-0 renal
A498 renal = tested on: A498 renal
ACHN renal = tested on: ACHN renal
BT-549 breast = tested on: BT-549 breast
CAKI-1 renal = tested on: CAKI-1 renal
CCRF-CEM leukemia = tested on: CCRF-CEM leukemia
COLO 205 colon = tested on: COLO 205 colon
HCC-2998 colon = tested on: HCC-2998 colon
HL-60(TB) leukemia = tested on: HL-60(TB) leukemia
HOP-62 NSCLC = tested on: HOP-62 NSCLC
HOP-92 NSCLC = tested on: HOP-92 NSCLC
HS 578T breast = tested on: HS 578T breast
IGROV1 ovarian = tested on: IGROV1 ovarian
K-562 leukemia = tested on: K-562 leukemia
KM12 colon = tested on: KM12 colon
LOX IMVI melanoma = tested on: LOX IMVI melanoma
M14 melanoma = tested on: M14 melanoma
MALME-3M melanoma = tested on: MALME-3M melanoma
MCF7 breast = tested on: MCF7 breast
MDA-MB-231 breast = tested on: MDA-MB-231 breast
MDA-MB-435 melanoma = tested on: MDA-MB-435 melanoma
MOLT-4 leukemia = tested on: MOLT-4 leukemia
NCI-H23 lung = tested on: NCI-H23 lung
NCI-H322M lung = tested on: NCI-H322M lung
NCI-H460 NSCLC = tested on: NCI-H460 NSCLC
NCI-H522 lung = tested on: NCI-H522 lung
NCI/ADR-RES ovarian = tested on: NCI/ADR-RES ovarian
OVCAR-4 ovarian = tested on: OVCAR-4 ovarian
OVCAR-5 ovarian = tested on: OVCAR-5 ovarian
OVCAR-8 ovarian = tested on: OVCAR-8 ovarian
PC-3 prostate = tested on: PC-3 prostate
RXF 393 renal = tested on: RXF 393 renal
SF-268 CNS = tested on: SF-268 CNS
SF-539 CNS = tested on: SF-539 CNS
SK-MEL-2 melanoma = tested on: SK-MEL-2 melanoma
SK-MEL-28 melanoma = tested on: SK-MEL-28 melanoma
SK-OV-3 ovarian = tested on: SK-OV-3 ovarian
SN12C renal = tested on: SN12C renal
SNB-75 CNS = tested on: SNB-75 CNS
SR leukemia = tested on: SR leukemia
SW-620 colon = tested on: SW-620 colon
T-47D breast = tested on: T-47D breast
TK-10 renal = tested on: TK-10 renal
U251 glioblastoma = tested on: U251 glioblastoma
UACC-257 melanoma = tested on: UACC-257 melanoma
UACC-62 melanoma = tested on: UACC-62 melanoma
UO-31 renal = tested on: UO-31 renal

C[C@H](N)C(=O)N1C[C@H](CCCB(O)O)[C@](N)(C(=O)O)C1
inactive: GI50 ([…]-0 renal) > 100 µM | GI50 (A498 renal) > 100 µM | GI50 (ACHN renal) > 100 µM | GI50 (BT-549 breast) > 100 µM | GI50 (CAKI-1 renal) > 100 µM | GI50 (CCRF-CEM leukemia) > 100 µM | GI50 (COLO 205 colon) > 92 µM | GI50 (HCC-2998 colon) > 100 µM | GI50 (HL-60(TB) leukemia) > 87.2 µM | GI50 (HOP-62 NSCLC) > 100 µM | GI50 (HOP-92 NSCLC) > 100 µM | GI50 (HS 578T breast) > 100 µM | GI50 (IGROV1 ovarian) > 100 µM | GI50 (K-562 leukemia) > 100 µM | GI50 (KM12 colon) > 100 µM | GI50 (LOX IMVI melanoma) > 100 µM | GI50 (M14 melanoma) > 86 µM | GI50 (MALME-3M melanoma) > 100 µM | GI50 (MCF7 breast) > 100 µM | GI50 (MDA-MB-231 breast) > 100 µM | GI50 (MDA-MB-435 melanoma) > 100 µM | GI50 (MOLT-4 leukemia) > 100 µM | GI50 (NCI-H23 lung) > 100 µM | GI50 (NCI-H322M lung) > 100 µM | GI50 (NCI-H460 NSCLC) > 100 µM | GI50 (NCI-H522 lung) > 100 µM | GI50 (NCI/ADR-RES ovarian) > 100 µM | GI50 (OVCAR-4 ovarian) > 100 µM | GI50 (OVCAR-5 ovarian) > 100 µM | GI50 (OVCAR-8 ovarian) > 100 µM | GI50 (PC-3 prostate) > 100 µM | GI50 (RXF 393 renal) > 100 µM | GI50 (SF-268 CNS) > 100 µM | GI50 (SF-539 CNS) > 100 µM | GI50 (SK-MEL-2 melanoma) > 100 µM | GI50 (SK-MEL-28 melanoma) > 100 µM | GI50 (SK-OV-3 ovarian) > 100 µM | GI50 (SN12C renal) > 100 µM | GI50 (SNB-75 CNS) > 100 µM | GI50 (SR leukemia) > 100 µM | GI50 (SW-620 colon) > 100 µM | GI50 (T-47D breast) > 100 µM | GI50 (TK-10 renal) > 100 µM | GI50 (U251 glioblastoma) > 100 µM | GI50 (UACC-257 melanoma) > 100 µM | GI50 (UACC-62 melanoma) > 100 µM | GI50 (UO-31 renal) > 100 µM
> 100 µM: TGI (786-0 renal) | TGI (A498 renal) | TGI (ACHN renal) | TGI (BT-549 breast) | TGI (CAKI-1 renal) | TGI (CCRF-CEM leukemia) | TGI (COLO 205 colon) | TGI (HCC-2998 colon) | TGI (HL-60(TB) leukemia) | TGI (HOP-62 NSCLC) | TGI (HOP-92 NSCLC) | TGI (HS 578T breast) | TGI (IGROV1 ovarian) | TGI (K-562 leukemia) | TGI (KM12 colon) | TGI (LOX IMVI melanoma) | TGI (M14 melanoma) | TGI (MALME-3M melanoma) | TGI (MCF7 breast) | TGI (MDA-MB-231 breast) | TGI (MDA-MB-435 melanoma) | TGI (MOLT-4 leukemia) | TGI (NCI-H23 lung) | TGI (NCI-H322M lung) | TGI (NCI-H460 NSCLC) | TGI (NCI-H522 lung) | TGI (NCI/ADR-RES ovarian) | TGI (OVCAR-4 ovarian) | TGI (OVCAR-5 ovarian) | TGI (OVCAR-8 ovarian) | TGI (PC-3 prostate) | TGI (RXF 393 renal) | TGI (SF-268 CNS) | TGI (SF-539 CNS) | TGI (SK-MEL-2 melanoma) | TGI (SK-MEL-28 melanoma) | TGI (SK-OV-3 ovarian) | TGI (SN12C renal) | TGI (SNB-75 CNS) | TGI (SR leukemia) | TGI (SW-620 colon) | TGI (T-47D breast) | TGI (TK-10 renal) | TGI (U251 glioblastoma) | TGI (UACC-257 melanoma) | TGI (UACC-62 melanoma) | TGI (UO-31 renal)
